Assays:
[1] = Cytotoxicity against human primary BMNC cells up to 50 uM measured on day 14; assay type: cell-based
[2] = test system: Hepatitis C virus; experiment: Antiviral activity against HCV genotype 1b infected in human HuH7 cells assessed as inhibition of viral RNA replication after 96 hrs by RT-PCR method; assay type: functional, cell-based, Hepacivirus hominis; conditions: Huh-7, 96 h
[3] = test system: nuclear DNA levels; experiment: in vitro; conditions: human, HepG2 cells
[4] = Metabolic stability in human blood assessed as compound remaining at 2 uM after 2 hrs by LC-MS/MS method; assay type: ADME, tissue-based; conditions: read-out: Stability
[5] = Cytotoxicity against human CEM cells assessed as inhibition of cell proliferation after 4 days by MTT assay; assay type: cell-based, CCRF-CEM
[6] = test system: HepG2; experiment: Mitochondrial toxicity in human HepG2 cells assessed as lactic acid production at 10 uM measured on day 14 by spectrophotometric method relative to control; assay type: cell-based; conditions: hepg2, 10 µM
[7] = test system: Hepatitis C virus; experiment: Antiviral activity against HCV genotype 3a infected in human HuH7 cells assessed as inhibition of viral RNA replication after 96 hrs by RT-PCR method; assay type: functional, cell-based, Hepacivirus hominis; conditions: Huh-7, 96 h
[8] = Cytotoxicity against African green monkey Vero cells assessed as inhibition of cell proliferation after 3 days by MTT assay; assay type: cell-based; conditions: chlorocebus sabaeus
[9] = biological target: Cytochrome P450 3A4 (Homo sapiens, UniProt P08684); experiment: Inhibition of human CYP3A4 using ketoconazole […]; assay type: ADME
[10] = test system: cytochrome c oxidase subunit 2 DNA (mitochondrial DNA) levels; experiment: Mitochondrial toxicity in human HepG2 cells assessed as inhibition of cytochrome c oxidase subunit 2 DNA levels at 50 uM measured on day 14 by RT-PCR method relative to nuclear beta-actin DNA levels; assay type: cell-based
[11] = Prodrug conversion in human primary hepatocytes assessed as increase in nucleoside 5' triphosphate levels at 50 uM after 4 hrs by LC-MS/MS analysis relative to sofosbuvir; assay type: ADME, cell-based, Hepatocyte
[12] = in vitro; conditions: human, liver microsomes
Description: Clearance in human liver microsomes at 1 uM by LC-MS/MS analysis

[13] = test system: Hepatitis C virus; experiment: Antiviral activity against HCV genotype 1b harboring wild type NS5B infected in human HuH7 cells assessed as inhibition of viral RNA replication after 5 days by RT-PCR method; assay type: functional, cell-based, Hepacivirus hominis; conditions: Huh-7, 120 h
[14] = test system: Hepatitis C virus; experiment: Antiviral activity against HCV genotype 1b harboring NS5B S282T mutant infected in human HuH7 cells assessed as inhibition of viral RNA replication after 4 days by luciferase reporter gene assay; assay type: functional, cell-based, Hepacivirus hominis; conditions: Huh-7, 96 h
[15] = Half life in human intestinal microsomes; assay type: ADME, Intestine, Microsome
[16] = test system: HepG2; experiment: Mitochondrial toxicity in human HepG2 cells assessed as lactic acid production at 50 uM measured on day 14 by spectrophotometric method relative to control; assay type: cell-based; conditions: hepg2, 50 µM
[17] = test system: cytochrome c oxidase subunit 2 DNA (mitochondrial DNA) levels; experiment: Mitochondrial toxicity in human HepG2 cells assessed as inhibition of cytochrome c oxidase subunit 2 DNA levels measured on day 14 by RT-PCR method; assay type: cell-based
[18] = test system: Hepatitis C virus; experiment: Antiviral activity against HCV genotype 1a infected in human HuH7 cells assessed as inhibition of viral RNA replication after 96 hrs by RT-PCR method; assay type: functional, cell-based, Hepacivirus hominis; conditions: subtype 1a, Huh-7, 96 h
[19] = test system: cytochrome c oxidase subunit 2 DNA (mitochondrial DNA) levels; experiment: in vitro; conditions: human, HepG2 cells
[20] = test system: HepG2; experiment: Cytotoxicity against human HepG2 cells assessed as inhibition of nuclear DNA levels measured on day 14 by RT-PCR method; conditions: HepG2, 336 h
[21] = in vitro; conditions: human, liver microsomes; remark: listed apart in the source
Description: Half life in human liver microsomes at 1 uM by LC-MS/MS analysis

[22] = test system: Hepatitis C virus; experiment: Antiviral activity against HCV genotype 2b infected in human HuH7 cells assessed as inhibition of viral RNA replication after 96 hrs by RT-PCR method; assay type: functional, cell-based, Hepacivirus hominis; conditions: Huh-7, 96 h
[23] = Metabolic stability in human intestinal microsomes assessed as compound remaining after 60 mins; assay type: ADME, Intestine, Microsome; conditions: read-out: Stability
[24] = Clearance in human intestinal microsomes; assay type: ADME, Intestine, Microsome
[25] = test system: HepG2; experiment: Mitochondrial toxicity in human HepG2 cells assessed as cytochrome c oxidase subunit 2 DNA levels at 50 uM measured on day 14 by RT-PCR method relative to nuclear beta-actin DNA levels; assay type: cell-based; conditions: hepg2, 50 µM
[26] = test system: Hepatitis C virus; experiment: Antiviral activity against HCV genotype 4 infected in human HuH7 cells assessed as inhibition of viral RNA replication after 96 hrs by RT-PCR method; assay type: functional, cell-based, Hepacivirus hominis; conditions: genotype 4, Huh-7, 96 h
[27] = Cytotoxicity against human HuH7 cells assessed as inhibition of cell proliferation after 4 days by MTS assay; assay type: cell-based, Huh-7
[28] = biological target: Cytochrome P450 2D6 (Homo sapiens, UniProt P10635); experiment: Inhibition of human CYP2D6 using quinidine […]; assay type: ADME
[29] = in vitro; conditions: human, liver microsomes; remark: listed apart in the source
Description: Metabolic stability in human liver microsomes assessed as parent compound remaining at 1 uM at 60 mins by LC-MS/MS analysis

[30] = test system: Hepatitis C virus; experiment: Selectivity ratio of EC90 for HCV genotype 1b harboring NS5B S282T mutant to EC90 for HCV genotype 1b harboring wild type NS5B; assay type: functional, Hepacivirus hominis
[31] = Prodrug conversion in human HuH7 cells assessed as increase in nucleoside 5' triphosphate levels at 50 uM after 4 hrs by LC-MS/MS analysis relative to sofosbuvir; assay type: ADME, cell-based; conditions: huh-7, 4 h
[32] = Cytotoxicity against human PBMC assessed as inhibition of cell proliferation after 5 days by MTT assay; assay type: cell-based
[33] = test system: HepG2; experiment: Mitochondrial toxicity in human HepG2 cells assessed as cytochrome c oxidase subunit 2 DNA levels at 10 uM measured on day 14 by RT-PCR method relative to nuclear beta-actin DNA levels; conditions: hepg2, 10 µM
[34] = test system: Hepatitis C virus; experiment: Antiviral activity against HCV genotype 2a/k infected in human HuH7 cells assessed as inhibition of viral RNA replication after 96 hrs by RT-PCR method; assay type: functional, cell-based, Hepacivirus hominis; conditions: Huh-7, 96 h
[35] = test system: Hepatitis C virus; experiment: Selectivity ratio of EC50 for HCV genotype 1b harboring NS5B S282T mutant to EC50 for HCV genotype 1b harboring wild type NS5B; assay type: functional, Hepacivirus hominis
[36] = biological target: Cytochrome P450 2C9 (Homo sapiens, UniProt P11712); experiment: Inhibition of human CYP2C9 using sulfaphenazole […]; assay type: ADME
[37] = biological target: T1, Cytochrome P450 1A2 (Homo sapiens, UniProt P05177); experiment: Inhibition of human CYP1A2 using alpha-naphthoflavone […]; assay type: ADME
T1 sequence (P05177 whole entry): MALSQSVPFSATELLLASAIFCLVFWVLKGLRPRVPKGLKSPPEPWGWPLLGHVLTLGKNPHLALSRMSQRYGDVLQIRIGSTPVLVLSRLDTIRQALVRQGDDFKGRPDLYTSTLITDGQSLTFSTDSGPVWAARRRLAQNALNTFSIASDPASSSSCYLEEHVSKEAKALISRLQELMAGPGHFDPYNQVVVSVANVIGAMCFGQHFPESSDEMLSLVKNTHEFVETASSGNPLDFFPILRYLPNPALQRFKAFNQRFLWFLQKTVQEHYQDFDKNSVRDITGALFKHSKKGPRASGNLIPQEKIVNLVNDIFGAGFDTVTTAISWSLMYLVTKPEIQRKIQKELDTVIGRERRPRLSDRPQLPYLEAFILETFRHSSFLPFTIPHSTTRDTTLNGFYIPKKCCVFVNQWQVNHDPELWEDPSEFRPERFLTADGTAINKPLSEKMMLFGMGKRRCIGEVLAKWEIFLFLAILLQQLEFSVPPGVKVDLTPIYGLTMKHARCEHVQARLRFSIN

[38] = test system: nuclear DNA levels; experiment: Cytotoxicity against human HepG2 cells assessed as inhibition of nuclear DNA levels at 50 uM measured on day 14 by RT-PCR method relative to nuclear beta-actin DNA levels; assay type: cell-based; conditions: read-out: INH

Sequence of Cytochrome P450 3A4 (P08684 whole entry): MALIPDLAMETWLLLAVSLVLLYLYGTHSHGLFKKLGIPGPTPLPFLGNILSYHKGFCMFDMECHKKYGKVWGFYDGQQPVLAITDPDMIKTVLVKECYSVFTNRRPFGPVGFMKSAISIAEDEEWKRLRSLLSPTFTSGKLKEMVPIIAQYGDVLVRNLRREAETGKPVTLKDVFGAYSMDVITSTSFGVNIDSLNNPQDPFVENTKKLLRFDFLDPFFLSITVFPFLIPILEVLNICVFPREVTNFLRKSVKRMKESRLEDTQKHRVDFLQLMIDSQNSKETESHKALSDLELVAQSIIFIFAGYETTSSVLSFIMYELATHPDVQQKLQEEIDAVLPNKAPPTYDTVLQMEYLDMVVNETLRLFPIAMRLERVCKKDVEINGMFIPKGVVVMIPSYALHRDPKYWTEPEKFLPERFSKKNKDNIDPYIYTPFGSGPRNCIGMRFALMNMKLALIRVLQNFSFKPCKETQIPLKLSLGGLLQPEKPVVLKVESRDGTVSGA
Sequence of Cytochrome P450 2C9 (P11712 whole entry): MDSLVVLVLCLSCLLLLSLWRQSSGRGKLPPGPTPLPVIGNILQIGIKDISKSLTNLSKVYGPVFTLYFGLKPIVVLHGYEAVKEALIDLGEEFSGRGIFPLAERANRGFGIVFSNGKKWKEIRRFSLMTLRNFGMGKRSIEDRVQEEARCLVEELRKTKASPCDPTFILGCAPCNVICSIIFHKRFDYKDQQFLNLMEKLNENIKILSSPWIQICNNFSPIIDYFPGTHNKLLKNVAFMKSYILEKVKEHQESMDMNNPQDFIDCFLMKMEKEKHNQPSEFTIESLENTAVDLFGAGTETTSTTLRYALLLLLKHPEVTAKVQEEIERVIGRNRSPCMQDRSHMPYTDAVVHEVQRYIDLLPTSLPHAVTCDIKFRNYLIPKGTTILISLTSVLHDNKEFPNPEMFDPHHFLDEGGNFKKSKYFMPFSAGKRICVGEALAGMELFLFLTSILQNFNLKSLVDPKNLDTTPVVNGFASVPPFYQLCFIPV
Sequence of Cytochrome P450 2D6 (P10635 whole entry): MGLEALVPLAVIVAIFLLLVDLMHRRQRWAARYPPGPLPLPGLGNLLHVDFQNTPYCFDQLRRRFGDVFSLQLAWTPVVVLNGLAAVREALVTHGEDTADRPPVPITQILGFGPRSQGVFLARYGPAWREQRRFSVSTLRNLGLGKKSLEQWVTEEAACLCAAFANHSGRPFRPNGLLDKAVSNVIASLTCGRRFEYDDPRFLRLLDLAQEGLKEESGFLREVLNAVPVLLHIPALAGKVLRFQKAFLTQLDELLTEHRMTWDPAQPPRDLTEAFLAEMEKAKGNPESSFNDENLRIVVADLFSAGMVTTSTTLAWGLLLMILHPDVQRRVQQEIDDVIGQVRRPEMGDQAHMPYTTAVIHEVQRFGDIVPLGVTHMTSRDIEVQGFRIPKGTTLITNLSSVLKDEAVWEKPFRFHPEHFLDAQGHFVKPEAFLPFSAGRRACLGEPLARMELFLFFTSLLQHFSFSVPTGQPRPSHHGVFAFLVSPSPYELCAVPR

CC(C)OC(=O)[C@H](C)NP(=O)(OC[C@H]1O[C@@H](n2ccc(=O)[nH]c2=O)[C@@](F)(Cl)[C@@H]1O)Oc1ccccc1 (mixture of isomers)
Activity [1]: Non-Toxic
IC50 [2]: 150 nM
cytotoxicity at 14 days, 10 µM [3]: < 1%
remaining at 2 h, 2 µM [4]: 103%
CC50 at 96 h [5]: > 100000 nM
Activity [6]: 60%
IC50 [7]: 150 nM
CC50 at 72 h [8]: > 100000 nM
IC50 [9]: 6800 nM
inhibition at 14 days, 50 µM [10]: 27%
fold change (FC) [11]: 2.3
microsomal CLint at 1 µM [12]: 120 µL/min/mg
EC50 [13]: 20 to 200 nM
EC90 [13]: 70 to 400 nM
EC50 [14]: 70 nM
EC90 [14]: 200 nM
half-life [15]: 2 h
Activity [16]: 56%
IC50 at 14 days [17]: > 50000 nM
IC50 [18]: 130 nM
inhibition at 14 days, 10 µM [19]: < 1%
IC50 [20]: > 50000 nM
half-life at 1 µM [21]: 0.193 h
IC50 [22]: 90 nM
remaining at 1 h [23]: 79%
microsomal CLint [24]: 29 µL/min/mg
Activity [25]: 84%
IC50 [26]: 170 nM
CC50 at 96 h [27]: > 10000 nM
IC50 [28]: > 100000 nM
remaining at 1 h, 1 µM [29]: 4.2%
Selectivity ratio [30]: 2.9
fold change (FC) [31]: 2.7
CC50 at 120 h [32]: > 100000 nM
Activity [33]: 130%
IC50 [34]: 50 nM
Ratio EC50 [35]: 3.5
IC50 [36]: 25000 nM
IC50 [37]: > 100000 nM
cytotoxicity at 14 days, 50 µM [38]: 13%

— ChEMBL document CHEMBL4014354, “2'-Chloro,2'-fluoro Ribonucleotide Prodrugs with Potent Pan-genotypic Activity against Hepatitis C Virus Replication in Culture” (J Med Chem, 2017)
